How the values were obtained:
[1] = test system: Aβ1-40 secreted from HEK293 cells stably expressing wildtype human APP695 protein (HEK-APPwt cells); test: Aβ Cell Based Assay (Aβ1-40 secretion, ELISA); settings: Homo sapiens, HEK293, 6 h, 6 hours incubation, reduction of Aβ1-40 secretion
Outline: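 Cells in DMEM with 2% FBS exposed to ten compound concentrations for 6 h at 37 °C. Secreted Aβ1-40 in supernatant quantified by sandwich ELISA (82E1 capture, TMB, OD450). EC50 from percent inhibition, DAPT defining 100% inhibition, non-linear fit.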

BACE-1 enzyme = molecular target: T1, BACE-1 enzyme (Homo sapiens, UniProt P56817); test: BACE Fluorescence Resonance Energy Transfer (FRET) Assay; assay type: biochemical; settings: pH 4-4.5, 30 min pre-incubation, about 1.5 hours reaction
T1 construct: purchased R & D Systems 931AS
T1 sequence (P56817 46-457 limits assumed): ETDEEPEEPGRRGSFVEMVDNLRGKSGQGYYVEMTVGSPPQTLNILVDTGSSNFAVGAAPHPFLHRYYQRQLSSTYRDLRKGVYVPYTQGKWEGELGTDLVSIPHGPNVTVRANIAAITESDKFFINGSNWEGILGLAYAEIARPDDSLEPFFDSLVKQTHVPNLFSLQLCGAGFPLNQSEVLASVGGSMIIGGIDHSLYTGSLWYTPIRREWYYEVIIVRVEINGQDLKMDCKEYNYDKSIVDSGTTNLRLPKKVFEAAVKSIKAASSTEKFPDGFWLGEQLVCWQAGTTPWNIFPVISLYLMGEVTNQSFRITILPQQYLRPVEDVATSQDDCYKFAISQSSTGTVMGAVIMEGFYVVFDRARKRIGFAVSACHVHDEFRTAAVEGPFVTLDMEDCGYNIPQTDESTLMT
Outline: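 Fluorescence (ex 540, em 585 nm) after ~1.5 h room-temperature cleavage of a quenched rhodamine peptide tracks BACE-1 activity. Enzyme and compound first sit 30 min in pH 4-4.5 acetate buffer with CHAPS, Triton X-100, EDTA, 7.5% DMSO. Values given as IC50 or % inhibition.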

SMILES	IC50 (BACE-1 enzyme) [µM]	EC50 [1] [µM]
CCN(C)Cc1ccc2nc(C(=O)Nc3nc4cc(-c5cccc(C(F)(F)F)c5)ccc4[nH]3)cn2c1 [Example 188, 6-[(Ethyl-methyl-amino)-methyl]-imidazo[1,2-a]pyridine-2-carboxylic acid [5-(3-trifluoromethyl-phenyl)-1H-benzoimidazol-2-yl]-amide]	0.69	3.6
CN1CCN(Cc2cccn3cc(C(=O)Nc4nc5cc(-c6cccc(C(F)(F)F)c6)ccc5[nH]4)nc23)CC1 [Example 194, 8-(4-Methyl-piperazin-1-ylmethyl)-imidazo[1,2-a]pyridine-2-carboxylic acid [5-(3-trifluoromethyl-phenyl)-1H-benzoimidazol-2-yl]-amide]	0.87	6.27
CNCc1cccn2cc(C(=O)Nc3nc4cc(-c5cccc(C(F)(F)F)c5)ccc4[nH]3)nc12 [Example 196, 8-Methylaminomethyl-imidazo[1,2-a]pyridine-2-carboxylic acid [5-(3-trifluoromethyl-phenyl)-1H-benzoimidazol-2-yl]-amide]	0.45	5.96
CN(C)Cc1cccn2cc(C(=O)Nc3nc4cc(-c5cccc(C(F)(F)F)c5)ccc4[nH]3)nc12 [Example 197, 8-Dimethylaminomethyl-imidazo[1,2-a]pyridine-2-carboxylic acid [5-(3-trifluoromethyl-phenyl)-1H-benzoimidazol-2-yl]-amide]	0.7	0.76
CC(C)CN(C)Cc1cccn2cc(C(=O)Nc3nc4cc(-c5cccc(C(F)(F)F)c5)ccc4[nH]3)nc12 [Example 199, 8-[(Isobutyl-methyl-amino)-methyl]-imidazo[1,2-a]pyridine-2-carboxylic acid [5-(3-trifluoromethyl-phenyl)-1H-benzoimidazol-2-yl]-amide]	0.94	5.34
O=C(Nc1nc2cc(-c3cccc(C(F)(F)F)c3)ccc2[nH]1)c1cn2ccc(CN3CCOCC3)cc2n1 [Example 201, 7-Morpholin-4-ylmethyl-imidazo[1,2-a]pyridine-2-carboxylic acid [5-(3-trifluoromethyl-phenyl)-1H-benzoimidazol-2-yl]-amide]	0.97	0.87
CN(C)Cc1ccn2cc(C(=O)Nc3nc4cc(-c5cccc(C(F)(F)F)c5)ccc4[nH]3)nc2c1 [Example 202, 7-Dimethylaminomethyl-imidazo[1,2-a]pyridine-2-carboxylic acid [5-(3-trifluoromethyl-phenyl)-1H-benzoimidazol-2-yl]-amide]	0.9	4.54
O=C(Nc1nc2cc(-c3cccc(C(F)(F)F)c3)ccc2[nH]1)c1cn2ccc(CNCc3ccncc3)cc2n1 [Example 204, 7-{[(Pyridin-4-ylmethyl)-amino]-methyl}-imidazo[1,2-a]pyridine-2-carboxylic acid [5-(3-trifluoromethyl-phenyl)-1H-benzoimidazol-2-yl]-amide]	0.47	2.37
CCN(C)Cc1ccn2cc(C(=O)Nc3nc4cc(-c5cccc(C(F)(F)F)c5)ccc4[nH]3)nc2c1 [Example 205, 7-[(Ethyl-methyl-amino)-methyl]-imidazo[1,2-a]pyridine-2-carboxylic acid [5-(3-trifluoromethyl-phenyl)-1H-benzoimidazol-2-yl]-amide]	0.59	3.2
O=C(Nc1nc2cc(-c3cccc(C(F)(F)F)c3)ccc2[nH]1)c1cn2ccc(CNCC(O)c3ccccc3)cc2n1 (centres unmarked) [Example 206, 7-[(2-Hydroxy-2-phenyl-ethylamino)-methyl]-imidazo[1,2-a]pyridine-2-carboxylic acid [5-(3-trifluoromethyl-phenyl)-1H-benzoimidazol-2-yl]-amide]	0.44	7.43
O=C(Nc1nc2cc(-c3cccc(C(F)(F)F)c3)ccc2[nH]1)c1cn2ccc(CNC(CO)Cc3ccccc3)cc2n1 (centres unmarked) [Example 207, 7-[(1-Benzyl-2-hydroxy-ethylamino)-methyl]-imidazo[1,2-a]pyridine-2-carboxylic acid [5-(3-trifluoromethyl-phenyl)-1H-benzoimidazol-2-yl]-amide]	0.69	7.65
O=C(Nc1nc2cc(-c3cccc(C(F)(F)F)c3)ccc2[nH]1)c1cn2c(C3=CCNCC3)cccc2n1 [Example 214, 5-(1,2,3,6-tetrahydropyridin-4-yl)-N-{5-[3-(trifluoromethyl)phenyl]-1H-benzimidazol-2-yl}imidazo[1,2-a]pyridine-2-carboxamide]	0.46	5.12
CN1CCC(c2cccc3nc(C(=O)Nc4nc5cc(-c6cccc(C(F)(F)F)c6)ccc5[nH]4)cn23)CC1 [Example 219, 5-(1-methylpiperidin-4-yl)-N-{5-[3-(trifluoromethyl)phenyl]-1H-benzimidazol-2-yl}imidazo[1,2-a]pyridine-2-carboxamide]	0.9	7.48

Stronger by IC50 (BACE-1 enzyme), values ahead:

IC50 (BACE-1 enzyme) [µM]	SMILES	EC50 [1] [µM]
0.41	CN1CC=C(c2cccc3nc(C(=O)Nc4nc5cc(-c6cccc(C(F)(F)F)c6)ccc5[nH]4)cn23)CC1 [Example 215, 5-(1-methyl-1,2,3,6-tetrahydropyridin-4-yl)-N-{5-[3-(trifluoromethyl)phenyl]-1H-benzimidazol-2-yl}imidazo[1,2-a]pyridine-2-carboxamide]	5.35
0.4	O=C(Nc1nc2cc(-c3cccc(C(F)(F)F)c3)ccc2[nH]1)c1cn2cccc(CO)c2n1 [Example 192, 8-Hydroxymethyl-imidazo[1,2-a]pyridine-2-carboxylic acid [5-(3-trifluoromethyl-phenyl)-1H-benzoimidazol-2-yl]-amide]	2.56
0.31	CN(C)C(=O)c1cccc2nc(C(=O)Nc3nc4cc(-c5cc(F)cc(Cl)c5)ccc4[nH]3)cn12 [Example 227, Imidazo[1,2-a]pyridine-2,5-dicarboxylic acid 2-{[5-(3-chloro-5-fluoro-phenyl)-1H-benzoimidazol-2-yl]-amide} 5-dimethylamide]	1.65
0.29	CNC(=O)c1cccc2nc(C(=O)Nc3nc4cc(-c5cc(F)cc(Cl)c5)ccc4[nH]3)cn12 [Example 226, Imidazo[1,2-a]pyridine-2,5-dicarboxylic acid 2-{[5-(3-chloro-5-fluoro-phenyl)-1H-benzoimidazol-2-yl]-amide} 5-methylamide]	2.14
0.28	COCCNC(=O)c1cccc2nc(C(=O)Nc3nc4cc(-c5cc(F)cc(Cl)c5)ccc4[nH]3)cn12 [Example 228]	1.34
0.22	COCCCNCc1ccn2cc(C(=O)Nc3nc4cc(-c5cccc(C(F)(F)F)c5)ccc4[nH]3)nc2c1 [Example 209, 7-[(3-Methoxy-propylamino)-methyl]-imidazo[1,2-a]pyridine-2-carboxylic acid [5-(3-trifluoromethyl-phenyl)-1H-benzoimidazol-2-yl]-amide]	4.91
